Where two headings read alike, the source gives them in different places.
What was measured:
[1] = test system: NCI-H1568 cells (high MCL1); test: Cell proliferation and viability, CellTiter-Glo, 72 hours; assay type: cell-based; conditions: for GI50: geometric mean
How it was run: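 RPMI-1640/10% FBS (Panc: + insulin, FBS 15%); 11-pt half-log dose, ~10 μM-100 pM, 0.1% DMSO; 37° C, 5% CO2; ATP luminescence read; % inhibition vs T0 and vehicle, −100% cidal to 100% uninhibited growth.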

SF3b complexes = biological target: T1, SF3b complexes (Homo sapiens, UniProt O75533+Q7RTV0); test: Scintillation proximity assay (SPA) with [3H]-labelled pladienolide probe; assay type: binding; conditions: SF3B1 (WT); geometric mean; read-out: SPA-ATS GMean IC50 (nM) SF3B1 (WT)
T1 construct: endogenous in cells; host or cells: Nuclear extracts; A HeLa S3 extract preparation is described for the in vitro splicing assay
How it was run: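 SF3b complexes captured from nuclear extracts on anti-SF3B1 antibody SPA beads; test compounds pre-incubated 30 min before 2.5 nM [3H]-pladienolide probe added, then 30 min incubation. Bound probe read by scintillation; values from non-linear regression of concentration–response curves.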

[2] = test system: Ad2 variant pre-mRNAs spliced in HeLa S3 nuclear extracts; test: In vitro splicing assay (IVS), RT-qPCR of spliced product; assay type: biochemical; conditions: for IC50: geometric mean; for Ratio Ad2.1/2.2: ratio of IVS IC50 Ad2.1 to Ad2.2
How it was run: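 Read-out is one-step TaqMan RT-qPCR of spliced Ad2 mRNA with Ftz as reference, normalized to DMSO and fit by non-linear regression. Reactions held HeLa S3 nuclear extract, 2 ng Ad2-derived pre-mRNA and test compound, with 15 min preincubation. Splicing was started with ATP-containing activation buffer and run 90 min at 30 °C.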

[3] = NCI-H1568, read-out: CTGlo-ATS GMean GI50 (nM) 72 h NCIH1568.1, NCIH1568.1 cells, 72 h
[4] = NCIH1568.1 cells, 72 h, −100% cidal, 0% static, 100% maximal growth
[5] = Ad2.1 pre-mRNA substrate, read-out: qPCR-IVS-ATS GMean IC50 (nM) Ad2.1
[6] = Ad2.2 pre-mRNA substrate, read-out: qPCR-IVS-ATS GMean IC50 (nM) Ad2.2
[7] = 72 h, NCIH1568.1, -100% = cidal, 0% = static, 100% = uninhibited growth
[8] = NCI-H1568, 72 h, read-out: CTGlo-ATS GMean GI50 (nM) 72 h NCIH1568.1, 72 h, NCIH1568.1

COc1ccc(Cn2nnc3c(F)cc(/C=C(\C)[C@H]4OC(=O)C[C@H](O)CC[C@H](C)[C@@H](OC(=O)N5CCN(C)CC5)/C=C/[C@@H]4C)cc32)cc1 [Compound 166]
GI50 [1, 3]: 17.6 nM | CTGlo-ATS Mean MinResponse % 72 h NCIH1568.1 [1, 4]: −66.370% | IC50 (SF3b complexes): 23.8 nM | IC50 [2, 5]: 1510 nM | IC50 [2, 6]: 48.3 nM

C/C(=C\c1cc(F)cc(N2CCN(C(=O)Cn3cccn3)CC2)c1)[C@H]1OC(=O)C[C@H](O)CC[C@H](C)[C@@H](OC(=O)N2CCCN(C)CC2)/C=C/[C@@H]1C [Compound 225, [(2S,3S,4E,6R,7S,10R)-2-[(E)-1-[3-fluoro-5-[4-(2-pyrazol-1-ylacetyl)piperazin-1-yl]phenyl]prop-1-en-2-yl]-10-hydroxy-3,7-dimethyl-12-oxo-1-oxacyclododec-4-en-6-yl] 4-methyl-1,4-diazepane-1-carboxylate]
CTGlo-ATS Mean MinResponse % 72 h NCIH1568.1 [1, 7]: −73.768% | GI50 [1, 8]: 11 nM | IC50 (SF3b complexes): 18.2 nM | IC50 [2, 5]: 7.56 nM | IC50 [2, 6]: 22.4 nM | Ratio Ad2.1/2.2 [2]: 0.337

COCCn1nnc2c(F)cc(/C=C(\C)[C@H]3OC(=O)C[C@H](O)CC[C@H](C)[C@@H](OC(=O)N4CCN(C)CC4)/C=C/[C@@H]3C)cc21 [Compound 159]
GI50 [1, 3]: 3.45 nM | CTGlo-ATS Mean MinResponse % 72 h NCIH1568.1 [1, 4]: −65.047% | IC50 (SF3b complexes): 1.84 nM | IC50 [2, 5]: 88.3 nM | IC50 [2, 6]: 10.2 nM

COCCn1cnc2c(F)cc(/C=C(\C)[C@H]3OC(=O)C[C@H](O)CC[C@H](C)[C@@H](OC(=O)N4CCN(C)CC4)/C=C/[C@@H]3C)cc21 [Compound 142]
GI50 [1, 3]: 2.19 nM | CTGlo-ATS Mean MinResponse % 72 h NCIH1568.1 [1, 4]: −69.213% | IC50 (SF3b complexes): 1.35 nM | IC50 [2, 5]: 12.9 nM | IC50 [2, 6]: 6.99 nM

C/C(=C\c1cc(F)cc(N2CCN(C(=O)Cn3cccn3)CC2)c1)[C@H]1OC(=O)C[C@H](O)CC[C@H](C)[C@@H](OC(=O)N(C)CCc2ccc(O)cc2)/C=C/[C@@H]1C [Compound 239, [(2S,3S,4E,6R,7S,10R)-2-[(E)-1-[3-fluoro-5-[4-(2-pyrazol-1-ylacetyl)piperazin-1-yl]phenyl]prop-1-en-2-yl]-10-hydroxy-3,7-dimethyl-12-oxo-1-oxacyclododec-4-en-6-yl] N-[2-(4-hydroxyphenyl)ethyl]-N-methylcarbamate]
CTGlo-ATS Mean MinResponse % 72 h NCIH1568.1 [1, 7]: −77.758% | GI50 [1, 8]: 63.5 nM | IC50 (SF3b complexes): 150 nM | IC50 [2, 5]: 103 nM | IC50 [2, 6]: 48 nM | Ratio Ad2.1/2.2 [2]: 2.151

C/C(=C\c1cc(F)cc(N2CCN(CC(=O)O)CC2)c1)[C@H]1OC(=O)C[C@H](O)CC[C@H](C)[C@@H](OC(=O)N2CCNCC2)/C=C/[C@@H]1C [Compound 264]
CTGlo-ATS Mean MinResponse % 72 h NCIH1568.1 [1, 7]: −21.716% | GI50 [1, 8]: 143 nM | IC50 (SF3b complexes): 35.7 nM | IC50 [2, 5]: 33.4 nM | IC50 [2, 6]: 72.4 nM | Ratio Ad2.1/2.2 [2]: 0.461

C/C(=C\c1cc(F)c2cnn(C3CCC(F)(F)CC3)c2c1)[C@H]1OC(=O)C[C@H](O)CC[C@H](C)[C@@H](OC(=O)N2CCN(C)CC2)/C=C/[C@@H]1C [Compound 195]
GI50 [1, 3]: 6.59 nM | CTGlo-ATS Mean MinResponse % 72 h NCIH1568.1 [1, 4]: −95.559% | IC50 (SF3b complexes): 69.3 nM | IC50 [2, 5]: 91.9 nM | IC50 [2, 6]: 58.3 nM

CCCS(=O)(=O)N1CCC(N(C)c2cc(F)cc(/C=C(\C)[C@H]3OC(=O)C[C@H](O)CC[C@H](C)[C@@H](OC(=O)N4CCN(C)CC4)/C=C/[C@@H]3C)c2)CC1 [Compound 182]
GI50 ([1]; NCI-H1568, 72 h, read-out: CTGlo-ATS GMean GI50 (nM) 72 h NCIH1568.1, NCIH1568.1 cells, 72 h): 23.4 nM | CTGlo-ATS Mean MinResponse % 72 h NCIH1568.1 [1, 4]: −69.521% | IC50 (SF3b complexes): 86.4 nM | IC50 [2, 5]: 208 nM | IC50 [2, 6]: 40.1 nM

C/C(=C\c1cc(F)cc(N2CCN(C(=O)Cn3cccn3)CC2)c1)C1OC(=O)CC(O)CC[C@H](C)[C@@H](OC(=O)NC(C)CO)/C=C/C1C (stereo in doubt) [Compound 229, [(2R,3R,4E,6R,7S,10S)-2-[(E)-1-[3-fluoro-5-[4-(2-pyrazol-1-ylacetyl)piperazin-1-yl]phenyl]prop-1-en-2-yl]-10-hydroxy-3,7-dimethyl-12-oxo-1-oxacyclododec-4-en-6-yl] N-[(2S)-1-hydroxypropan-2-yl]carbamate]
CTGlo-ATS Mean MinResponse % 72 h NCIH1568.1 [1, 7]: −65.653% | GI50 [1, 8]: 13.4 nM | IC50 (SF3b complexes): 17.1 nM | IC50 [2, 5]: 329 nM | IC50 [2, 6]: 12.2 nM | Ratio Ad2.1/2.2 [2]: 27.000

C/C(=C\c1cc(F)c2nnn(Cc3ccc(Cl)cc3)c2c1)[C@H]1OC(=O)C[C@H](O)CC[C@H](C)[C@@H](OC(=O)N2CCN(C)CC2)/C=C/[C@@H]1C [Compound 145]
GI50 [1, 3]: 25 nM | CTGlo-ATS Mean MinResponse % 72 h NCIH1568.1 [1, 4]: −66.236% | IC50 (SF3b complexes): 69.4 nM | IC50 [2, 5]: 688 nM | IC50 [2, 6]: 38.1 nM

C/C(=C\c1cc(F)c2nnn(C3CCS(=O)(=O)CC3)c2c1)[C@H]1OC(=O)C[C@H](O)CC[C@H](C)[C@@H](OC(=O)N2CCN(C)CC2)/C=C/[C@@H]1C [Compound 158]
GI50 [1, 3]: 6.57 nM | CTGlo-ATS Mean MinResponse % 72 h NCIH1568.1 [1, 4]: −87.167% | IC50 (SF3b complexes): 13.9 nM | IC50 [2, 5]: 18.9 nM | IC50 [2, 6]: 18.2 nM

C/C(=C\c1cc(F)cc(N2CCN(C(=O)Cn3cccn3)CC2)c1)[C@H]1OC(=O)C[C@H](O)CC[C@H](C)[C@@H](OC(=O)NCc2ccncn2)/C=C/[C@@H]1C [Compound 222, [(2S,3S,4E,6R,7S,10R)-2-[(E)-1-[3-fluoro-5-[4-(2-pyrazol-1-ylacetyl)piperazin-1-yl]phenyl]prop-1-en-2-yl]-10-hydroxy-3,7-dimethyl-12-oxo-1-oxacyclododec-4-en-6-yl] N-(pyrimidin-4-ylmethyl)carbamate]
CTGlo-ATS Mean MinResponse % 72 h NCIH1568.1 [1, 7]: −58.410% | GI50 [1, 8]: 69.4 nM | IC50 (SF3b complexes): 23.6 nM | IC50 [2, 5]: 116 nM | IC50 [2, 6]: 53.2 nM | Ratio Ad2.1/2.2 [2]: 2.179

C/C(=C\c1cc(F)c2nnn(C3CCN(C(=O)OC(C)(C)C)CC3)c2c1)[C@H]1OC(=O)C[C@H](O)CC[C@H](C)[C@@H](OC(=O)N2CCN(C)CC2)/C=C/[C@@H]1C [Compound 144]
GI50 [1, 3]: 4.12 nM | CTGlo-ATS Mean MinResponse % 72 h NCIH1568.1 [1, 4]: −95.432% | IC50 (SF3b complexes): 12.9 nM | IC50 [2, 5]: 23 nM | IC50 [2, 6]: 17.8 nM

C/C(=C\c1cc(F)cc(N(C)C2CCN(C(=O)c3cnccn3)CC2)c1)[C@H]1OC(=O)C[C@H](O)CC[C@H](C)[C@@H](OC(=O)N2CCN(C)CC2)/C=C/[C@@H]1C [Compound 189]
GI50 [1, 3]: 9.53 nM | CTGlo-ATS Mean MinResponse % 72 h NCIH1568.1 [1, 4]: −76.052% | IC50 (SF3b complexes): 6.8 nM | IC50 [2, 5]: 16.9 nM | IC50 [2, 6]: 10.3 nM

C/C(=C\c1cc(F)cc(N2CCN(C(=O)Cn3cccn3)CC2)c1)[C@H]1OC(=O)C[C@H](O)CC[C@H](C)[C@@H](OC(=O)N(C)C2CCN(C)CC2)/C=C/[C@@H]1C [Compound 233, [(2S,3S,4E,6R,7S,10R)-2-[(E)-1-[3-fluoro-5-[4-(2-pyrazol-1-ylacetyl)piperazin-1-yl]phenyl]prop-1-en-2-yl]-10-hydroxy-3,7-dimethyl-12-oxo-1-oxacyclododec-4-en-6-yl] N-methyl-N-(1-methylpiperidin-4-yl)carbamate]
CTGlo-ATS Mean MinResponse % 72 h NCIH1568.1 [1, 7]: −87.288% | GI50 ([1]; NCI-H1568, read-out: CTGlo-ATS GMean GI50 (nM) 72 h NCIH1568.1, 72 h, NCIH1568.1): 1.98 nM | IC50 (SF3b complexes): 2.46 nM | IC50 [2, 5]: 5.87 nM | IC50 [2, 6]: 6.05 nM | Ratio Ad2.1/2.2 [2]: 0.971

— US11679107B2 (Eisai R&D Management Co., Ltd., priority 2018, dated 2023)
